# Data taken from paper PMC6937582, “Human leukocyte antigen (HLA) class II peptide flanking residues tune the immunogenicity of a human tumor-derived epitope” (The Journal of Biological Chemistry, 2019).
# No end group written: not given here.
# Biological target: T1, HLA-DR1 (Homo sapiens, UniProt P01903+P01911, A100R/D57E/F55L/F60I/F76Y/I96L/L162R/M171V/P40L/Q125E/R42F/V115G/Y59C)
# T1 construct: DRα*0101 (Uniprot: P01903, residues 26–207); HLA-DRβ1*0101 (Uniprot: P04229, residues 30–219); made in house
# Assay: HLA-DR1 competitive peptide-binding assay
# Conditions: Fig. 2B; competition with 4.5 nM biotinylated CLIP99–117 marker peptide on refolded HLA-DR1-CLIP105–117, pH 5, overnight 37 °C, ELISA read-out; triplicate; four-parameter curve fit; read-out: HLA-DR1 binding IC50
row,IC50 [nM],Sequence
1,535,AGDGRLRLARLALVLLGWVS [5T4_11–30]
2,176,FARRPPLAELAALNLSGSRL [5T4_111–130]

# Same assay, conditions: Fig. 5 B,D,F,H,J; truncated/substituted 5T4_111–130 peptides; competition with biotinylated CLIP99–117, pH 5, overnight 37 °C; representative of two experiments in triplicate; read-out: HLA-DR1 binding (IC50)
row,IC50 [nM],Sequence
1,725,FARRPPLAELAAANLSGSRL
2,360,FARRPPLAELAALNLS
3,103,FARRPPLAELAALNLSGS
4,136,FARRPPLAELAALNLSGSRL [5T4_111–130]
5,255,FARRPPLAELAALNLSRSRL
6,5140,LAELAALNL
7,231,PPLAELAALNLSGSRL
8,417,RRPPLAELAALNLSGSRL

# Same assay, conditions: HLA-DR1 binding (IC50)
row,Sequence,IC50 [nM]
1,FARRPPLAELAALALSGSRL,144
